Data taken from ChEMBL document CHEMBL4828736, “Discovery of ASTX029, A Clinical Candidate Which Modulates the Phosphorylation and Catalytic Activity of ERK1/2” (J Med Chem, 2021).

Test system: not listed separately
Assay: physchem
Settings: buffer, pH 7.4

| SMILES | chromatographic logD |
| --- | --- |
| COc1cc(F)cc([C@@H](CO)NC(=O)[C@@H](C)N2Cc3ccc(-c4nc(Nc5ccnc(OC)c5)ncc4Cl)cc3C2=O)c1 | 4.2 |
| COc1cc(F)cc([C@@H](CO)NC(=O)CN2Cc3ccc(-c4nc(NC5CCOCC5)ncc4Cl)cc3C2=O)c1 | 3.3 |
| C[C@H](C(=O)N[C@H](CO)c1cc(F)cc(N2CCN(C)CC2)c1)N1Cc2ccc(-c3nc(NC4CCOCC4)ncc3Cl)cc2C1=O | 3.6 |

Second part, the compound after the results:

| chromatographic logD | SMILES |
| --- | --- |
| 3.2 | COc1cc(F)cc([C@@H](CO)NC(=O)[C@@H](C)N2Cc3ccc(-c4ccnc(NC5CCOCC5)n4)cc3C2=O)c1 |
| 3.2 | COc1cc(F)cc([C@@H](CO)NC(=O)[C@@H](C)N2Cc3ncc(-c4nc(NC5CCOCC5)ncc4Cl)cc3C2=O)c1 |

Test system: not listed separately
Assay: in vitro
Settings: human, microsomes

| SMILES | half-life at 40 min, 1 µM [min] |
| --- | --- |
| O=C(CN1Cc2ccc(-c3nc(NC4CCOCC4)ncc3Cl)cc2C1=O)N1CCCc2ccccc2C1 | < 5 |
| O=C(CN1Cc2ccc(-c3nc(NC4CCOCC4)ncc3Cl)cc2C1=O)NCc1ccccc1 | 32 |
| COc1cc(F)cc([C@@H](CO)NC(=O)CN2C(=O)c3cc(-c4nc(NC5CCOCC5)ncc4Cl)ccc3[C@H]2C)c1 | 22 |
| COc1cc(F)cc([C@@H](CO)NC(=O)[C@@H](C)N2Cc3ccc(-c4nc(Nc5ccnc(OC)c5)ncc4Cl)cc3C2=O)c1 | 25 |
| COc1cc(F)cc([C@@H](CO)NC(=O)CN2Cc3ccc(-c4nc(NC5CCOCC5)ncc4Cl)cc3C2=O)c1 | 31 |
| C[C@H](C(=O)N[C@H](CO)c1cc(F)cc(N2CCN(C)CC2)c1)N1Cc2ccc(-c3nc(NC4CCOCC4)ncc3Cl)cc2C1=O | 51 |

Further lines, results first:

| half-life at 40 min, 1 µM [min] | SMILES |
| --- | --- |
| 60 | C[C@H](C(=O)N[C@H](CO)c1cc(F)cc(OCCN(C)C)c1)N1Cc2ccc(-c3nc(NC4CCOCC4)ncc3Cl)cc2C1=O |
| 62 | COc1cc(F)cc([C@@H](CO)NC(=O)[C@@H](C)N2Cc3ccc(-c4ccnc(NC5CCOCC5)n4)cc3C2=O)c1 |
| 36 | COc1cc(F)cc([C@@H](CO)NC(=O)[C@@H](C)N2Cc3ncc(-c4nc(NC5CCOCC5)ncc4Cl)cc3C2=O)c1 |
| 23 | C[C@H](C(=O)N[C@H](CO)c1cc(F)cc(F)c1)N1Cc2ccc(-c3nc(NC4CCOCC4)ncc3Cl)cc2C1=O |
| 27 | COc1cccc([C@@H](CO)NC(=O)[C@@H](C)N2Cc3ccc(-c4nc(NC5CCOCC5)ncc4Cl)cc3C2=O)c1 |

Test system: not listed separately
Assay: in vivo
Settings: BALB/c, mouse, po, 5 mg/kg

| SMILES | bioavailability at 24 h [%] |
| --- | --- |
| COc1cc(F)cc([C@@H](CO)NC(=O)[C@@H](C)N2Cc3ccc(-c4nc(Nc5ccnc(OC)c5)ncc4Cl)cc3C2=O)c1 | 23 |
| COc1cc(F)cc([C@@H](CO)NC(=O)CN2Cc3ccc(-c4nc(NC5CCOCC5)ncc4Cl)cc3C2=O)c1 | 10 |

More lines, now with the values ahead:

| bioavailability at 24 h [%] | SMILES |
| --- | --- |
| 7 | COc1cc(F)cc([C@@H](CO)NC(=O)[C@@H](C)N2Cc3ccc(-c4ccnc(NC5CCOCC5)n4)cc3C2=O)c1 |
| 23 | COc1cc(F)cc([C@@H](CO)NC(=O)[C@@H](C)N2Cc3ncc(-c4nc(NC5CCOCC5)ncc4Cl)cc3C2=O)c1 |

Molecular target: CYP3A4 (Homo sapiens, UniProt P08684)
Sequence (P08684 whole entry): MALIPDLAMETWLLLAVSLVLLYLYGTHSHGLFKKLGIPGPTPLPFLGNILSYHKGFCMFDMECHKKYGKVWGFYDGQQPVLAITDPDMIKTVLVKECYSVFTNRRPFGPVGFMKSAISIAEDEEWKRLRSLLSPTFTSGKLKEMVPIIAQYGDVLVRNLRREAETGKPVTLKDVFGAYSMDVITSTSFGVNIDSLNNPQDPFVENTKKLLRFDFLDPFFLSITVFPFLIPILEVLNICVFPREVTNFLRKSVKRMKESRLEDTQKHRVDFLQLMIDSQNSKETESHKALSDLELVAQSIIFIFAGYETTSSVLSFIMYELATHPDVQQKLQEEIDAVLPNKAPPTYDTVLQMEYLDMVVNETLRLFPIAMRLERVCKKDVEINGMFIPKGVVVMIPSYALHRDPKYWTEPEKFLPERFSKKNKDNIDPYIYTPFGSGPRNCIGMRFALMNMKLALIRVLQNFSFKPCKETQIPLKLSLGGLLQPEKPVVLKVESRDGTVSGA
Assay: in vitro
Settings: recombinant enzyme

| SMILES | half-life at 40 min, 1 µM [min] |
| --- | --- |
| COc1cc(F)cc([C@@H](CO)NC(=O)CN2C(=O)c3cc(-c4nc(NC5CCOCC5)ncc4Cl)ccc3[C@H]2C)c1 | 7.3 |
| COc1cc(F)cc([C@@H](CO)NC(=O)[C@@H](C)N2Cc3ccc(-c4nc(Nc5ccnc(OC)c5)ncc4Cl)cc3C2=O)c1 | 27 |

More lines, now with the values ahead:

| half-life at 40 min, 1 µM [min] | SMILES |
| --- | --- |
| 10 | C[C@H](C(=O)N[C@H](CO)c1cc(F)cc(OCCN(C)C)c1)N1Cc2ccc(-c3nc(NC4CCOCC4)ncc3Cl)cc2C1=O |
| 49 | COc1cc(F)cc([C@@H](CO)NC(=O)[C@@H](C)N2Cc3ccc(-c4ccnc(NC5CCOCC5)n4)cc3C2=O)c1 |
| 23 | COc1cc(F)cc([C@@H](CO)NC(=O)[C@@H](C)N2Cc3ncc(-c4nc(NC5CCOCC5)ncc4Cl)cc3C2=O)c1 |
| < 5 | C[C@H](C(=O)N[C@H](CO)c1cc(F)cc(F)c1)N1Cc2ccc(-c3nc(NC4CCOCC4)ncc3Cl)cc2C1=O |

Test system: not listed separately
Assay: in vivo
Settings: BALB/c, mouse, po, 5 mg/kg
Remark: another data set of the same source

| SMILES | half-life at 24 h [min] |
| --- | --- |
| COc1cc(F)cc([C@@H](CO)NC(=O)[C@@H](C)N2Cc3ccc(-c4nc(Nc5ccnc(OC)c5)ncc4Cl)cc3C2=O)c1 | 60 |
| COc1cc(F)cc([C@@H](CO)NC(=O)CN2Cc3ccc(-c4nc(NC5CCOCC5)ncc4Cl)cc3C2=O)c1 | 90 |

Results, then the compound that gave them:

| half-life at 24 h [min] | SMILES |
| --- | --- |
| 72 | COc1cc(F)cc([C@@H](CO)NC(=O)[C@@H](C)N2Cc3ccc(-c4ccnc(NC5CCOCC5)n4)cc3C2=O)c1 |
| 114 | COc1cc(F)cc([C@@H](CO)NC(=O)[C@@H](C)N2Cc3ncc(-c4nc(NC5CCOCC5)ncc4Cl)cc3C2=O)c1 |

Test system: not listed separately
Assay: in vivo
Settings: BALB/c, mouse, iv, 0.5 mg/kg

| SMILES | Vd at 24 h [L/kg] |
| --- | --- |
| COc1cc(F)cc([C@@H](CO)NC(=O)[C@@H](C)N2Cc3ccc(-c4nc(Nc5ccnc(OC)c5)ncc4Cl)cc3C2=O)c1 | 0.56 |
| COc1cc(F)cc([C@@H](CO)NC(=O)CN2Cc3ccc(-c4nc(NC5CCOCC5)ncc4Cl)cc3C2=O)c1 | 1.4 |
| C[C@H](C(=O)N[C@H](CO)c1cc(F)cc(N2CCN(C)CC2)c1)N1Cc2ccc(-c3nc(NC4CCOCC4)ncc3Cl)cc2C1=O | 3.8 |

Second part, the compound after the results:

| Vd at 24 h [L/kg] | SMILES |
| --- | --- |
| 1 | COc1cc(F)cc([C@@H](CO)NC(=O)[C@@H](C)N2Cc3ccc(-c4ccnc(NC5CCOCC5)n4)cc3C2=O)c1 |
| 1.9 | COc1cc(F)cc([C@@H](CO)NC(=O)[C@@H](C)N2Cc3ncc(-c4nc(NC5CCOCC5)ncc4Cl)cc3C2=O)c1 |

Test system: not listed separately
Assay: in vitro
Settings: CD1, mouse, microsomes

| SMILES | half-life at 40 min, 1 µM [min] |
| --- | --- |
| O=C(CN1Cc2ccc(-c3nc(NC4CCOCC4)ncc3Cl)cc2C1=O)N1CCCc2ccccc2C1 | < 5 |
| O=C(CN1Cc2ccc(-c3nc(NC4CCOCC4)ncc3Cl)cc2C1=O)NCc1ccccc1 | 65 |
| COc1cc(F)cc([C@@H](CO)NC(=O)[C@@H](C)N2Cc3ccc(-c4nc(Nc5ccnc(OC)c5)ncc4Cl)cc3C2=O)c1 | 31 |
| COc1cc(F)cc([C@@H](CO)NC(=O)CN2Cc3ccc(-c4nc(NC5CCOCC5)ncc4Cl)cc3C2=O)c1 | 86 |

Next, values leading:

| half-life at 40 min, 1 µM [min] | SMILES |
| --- | --- |
| 49 | C[C@H](C(=O)N[C@H](CO)c1cc(F)cc(F)c1)N1Cc2ccc(-c3nc(NC4CCOCC4)ncc3Cl)cc2C1=O |
| 100 | COc1cccc([C@@H](CO)NC(=O)[C@@H](C)N2Cc3ccc(-c4nc(NC5CCOCC5)ncc4Cl)cc3C2=O)c1 |

Test system: A-375
Assay: cells
Assay type: functional, cell-based
Settings: Homo sapiens, A-375, 96 h

| IC50 [nM] | SMILES |
| --- | --- |
| 4 | COc1cc(F)cc([C@@H](CO)NC(=O)CN2Cc3ccc(-c4nc(NC5CCOCC5)ncc4Cl)cc3C2=O)c1 |

Test system: COLO 205
Assay: cells
Assay type: functional, cell-based
Settings: Homo sapiens, COLO 205, 96 h

| IC50 [nM] | SMILES |
| --- | --- |
| 15 | COc1cc(F)cc([C@@H](CO)NC(=O)[C@@H](C)N2Cc3ccc(-c4ccnc(NC5CCOCC5)n4)cc3C2=O)c1 |
| 8 | COc1cc(F)cc([C@@H](CO)NC(=O)[C@@H](C)N2Cc3ncc(-c4nc(NC5CCOCC5)ncc4Cl)cc3C2=O)c1 |

Test system: not listed separately
Assay: in vivo
Settings: BALB/c, mouse, po, 5 mg/kg
Remark: another data set of the same source

| SMILES | AUC at 24 h [ng·h/mL] |
| --- | --- |
| COc1cc(F)cc([C@@H](CO)NC(=O)[C@@H](C)N2Cc3ccc(-c4nc(Nc5ccnc(OC)c5)ncc4Cl)cc3C2=O)c1 | 4100 |
| COc1cc(F)cc([C@@H](CO)NC(=O)CN2Cc3ccc(-c4nc(NC5CCOCC5)ncc4Cl)cc3C2=O)c1 | 150 |
| C[C@H](C(=O)N[C@H](CO)c1cc(F)cc(N2CCN(C)CC2)c1)N1Cc2ccc(-c3nc(NC4CCOCC4)ncc3Cl)cc2C1=O | 18 |

Second part, the compound after the results:

| AUC at 24 h [ng·h/mL] | SMILES |
| --- | --- |
| 320 | COc1cc(F)cc([C@@H](CO)NC(=O)[C@@H](C)N2Cc3ccc(-c4ccnc(NC5CCOCC5)n4)cc3C2=O)c1 |
| 500 | COc1cc(F)cc([C@@H](CO)NC(=O)[C@@H](C)N2Cc3ncc(-c4nc(NC5CCOCC5)ncc4Cl)cc3C2=O)c1 |

Test system: not listed separately
Assay: in vivo
Settings: BALB/c, mouse, iv, 0.5 mg/kg
Remark: another data set of the same source

| SMILES | clearance at 24 h [mL/min/kg] |
| --- | --- |
| COc1cc(F)cc([C@@H](CO)NC(=O)[C@@H](C)N2Cc3ccc(-c4nc(Nc5ccnc(OC)c5)ncc4Cl)cc3C2=O)c1 | 4.6 |
| COc1cc(F)cc([C@@H](CO)NC(=O)CN2Cc3ccc(-c4nc(NC5CCOCC5)ncc4Cl)cc3C2=O)c1 | 54 |
| C[C@H](C(=O)N[C@H](CO)c1cc(F)cc(N2CCN(C)CC2)c1)N1Cc2ccc(-c3nc(NC4CCOCC4)ncc3Cl)cc2C1=O | 124 |

Other lines, results leading:

| clearance at 24 h [mL/min/kg] | SMILES |
| --- | --- |
| 17 | COc1cc(F)cc([C@@H](CO)NC(=O)[C@@H](C)N2Cc3ccc(-c4ccnc(NC5CCOCC5)n4)cc3C2=O)c1 |
| 37 | COc1cc(F)cc([C@@H](CO)NC(=O)[C@@H](C)N2Cc3ncc(-c4nc(NC5CCOCC5)ncc4Cl)cc3C2=O)c1 |
